Measurements taken from patent US20130295083A1, “2a-Methyl-19-nor-(20S)-1a,25-dihydroxyvitamin D3 (2AMD) or 2 methylene-19-nor-(20S)-1a,25-dihydroxyvitamin D3 (2MD) Support Survival and Function of Transplanted Islet Cells In Type 1 Diabetes” (Wisconsin Alumni Research Foundation, priority 2012, published 2013).

Tests used:
[1] = tested on: insulin-2 knockout non-obese diabetic mouse; conditions: rodent model of spontaneous T1D; Kiekhaefer et al. 2011; cited from earlier work
[2] = Serum calcium analysis in transplanted NOD mice; type: in vivo; conditions: 400 pg/day
Protocol: (§1) Mice were treated with either 400 picograms of 2AMD/mouse/day or with vehicle. 2AMD was administered by addition of the analog in the vehicle to LabDiet 5K52 (PMI Nutrition, Brentwood, Miss.). In order to deliver the designated dose of 2AMD, a stock solution of the analog was dissolved in EtOH, vortexed for 3 min, and the analog concentration was determined by spectrophotometry. Based on pre-determined diet consumption, diet was prepared to provide 400 pg of 2AMD/mouse/day. The diets were solidified with molten agar (USB Corporation, Cleveland, Ohio). Controls were fed diet prepared as described above but the vehicle containing no 2AMD. Mice in each group were fed either 2AMD diet or vehicle diet from the day of diabetes determination until the completion of the study.
Blood was collected from the orbital sinus 3 weeks after initiation of control or 2AMD treatment and every 3 weeks thereafter. Blood samples were spun at 2,938 g for 15 min, followed by a second and third spin at 16,883 g, each for 2 min. Serum calcium levels were determined by atomic absorption in 0.1% LaCl3.

Female NOD mice = experiment: Islet transplantation in spontaneously diabetic NOD mice: duration of normoglycemia / graft survival; type: in vivo; conditions: for Duration of Normoglycemia: 2 mice; for diabetes reversal / indefinite survival of syngeneic islet grafts: 400 pg/mouse/day
[3] = Adverse effects: food consumption, weight gain, body weights in transplanted NOD mice; type: in vivo
Protocol: as §1

[4] = chow-based diet, 800 islet equivalents
[5] = purified diet, 400 islet equivalents

In the case of “2α-methyl-19-nor-(20S)-1α,25-dihydroxyvitamin D3 [2AMD]”, the “effect on development of type 1 diabetes” value [1] is given as “prevented the transition from insulitis to diabetes”, the average serum calcium ([2]; chow diet, 400 islet equivalents, control 10.0 mg/dl) is given as 10.7 mg/dL and the average serum calcium ([2]; chow-based diet, 800 islet equivalents, control mice 9.8 mg/dl) is given as 10.3 mg/dL. For the same substance, the average serum calcium ([2]; purified diet, 400 islet equivalents, control 10.0 mg/dl) was 10.8 mg/dL, the “Duration of Normoglycemia” value (Female NOD mice; chow diet, 400 islet equivalents, 400 pg 2AMD/mouse/day, vehicle control 28 days) was ≥ 83 days and the Duration of Normoglycemia (Female NOD mice; chow-based diet, 800 islet equivalents, 400 pg 2AMD/mouse/day in diet, vehicle control 110 days) was > 230 days. The diabetes reversal (Female NOD mice; [4]) was 100%, the “indefinite survival of syngeneic islet grafts” value (Female NOD mice; [4]) was 100% and the “additional days of continuing normoglycemia compared to the untreated control” value (Female NOD mice; murine model, 2AMD treatment vs untreated control) was “at least 130 days”. The diabetes reversal (Female NOD mice; [5]) was 100%, the “indefinite survival of syngeneic islet grafts” value (Female NOD mice; [5]) was 100% and the “adverse effects as revealed by food consumption, weight gain and comparative body weights” value ([3]; 400 pg/day, chow-based diet, 800 islet equivalents) was “No adverse effects”. For the same substance, the “food consumption, weight gain, and comparative body weights” value ([3]; 2AMD purified diet group, 400 islet equivalents, attributed to hydration of two dietary components (early satiety), reversed after replacement at week 22) was “reduced”.
